The source made the active and inactive calls. No cut-off for these calls is given here.
Tests used:
Histone deacetylase 1 = Histone deacetylase 1 (Homo sapiens, UniProt Q13547); assay: Inhibition of recombinant human full length HDAC1 using fluorogenic substrate 3 after 30 mins by fluorescence assay
[1] = biological target: T1, Indoleamine 2,3-dioxygenase 1 (Homo sapiens, UniProt P14902); assay: Inhibition of recombinant human GST-tagged IDO1 (1 to 404 residues) using D-Tryptophan as substrate
[2] = system: Lewis lung carcinoma cell line; assay: Antiproliferative activity against mouse LLC cells after 48 hrs by CCK-8 assay; assay type: functional, cell-based
CT26 = assay: Antiproliferative activity against mouse CT26 cells after 48 hrs by CCK-8 assay; assay type: functional, cell-based; conditions: CT26, 48 h
A549 = assay: Antiproliferative activity against human A549 cells after 48 hrs by CCK-8 assay; assay type: functional, cell-based; conditions: A549, 48 h
HCT-116 [3] = assay: Antiproliferative activity against human HCT116 cells after 48 hrs by CCK-8 assay; assay type: functional, cell-based; conditions: HCT-116, 48 h
HT-29 = assay: Antiproliferative activity against human HT-29 cells after 48 hrs by CCK-8 assay; assay type: functional, cell-based; conditions: HT-29, 48 h
HCT-116 [4] = assay: Induction of apoptosis in human HCT116 cells after 48 hrs by Annexin V-FITC/propidium iodide staining based flow cytometry; assay type: functional, cell-based
HCT-116 [5] = assay: Induction of apoptosis in human HCT116 cells at 5 uM after 48 hrs by Annexin V-FITC/propidium iodide staining based flow cytometry relative to control; assay type: functional
HCT-116 [6] = assay: Induction of apoptosis in human HCT116 cells at 10 uM after 48 hrs by Annexin V-FITC/propidium iodide staining based flow cytometry relative to control; assay type: functional
HCT-116 [7] = assay: Induction of apoptosis in human HCT116 cells at 20 uM after 48 hrs by Annexin V-FITC/propidium iodide staining based flow cytometry relative to control; assay type: functional
HCT-116 [8] = assay: Cell cycle arrest in human HCT116 cells assessed as accumulation at G2/M phase up to 48 hrs by propidium iodide staining based flow cytometry (reference value: 27.2%); assay type: functional
HCT-116 [9] = assay: Cell cycle arrest in human HCT116 cells assessed as accumulation at G2/M phase by propidium iodide staining based flow cytometry; assay type: functional; conditions: TDE = time-dependent effect
[10] = biological target: T1, Indoleamine 2,3-dioxygenase 1; assay: Inhibition of IDO1 in IFN-gamma-stimulated human HeLa cells assessed as decrease in kynurenine levels after 48 hrs; assay type: cell-based
HeLa = assay: Cytotoxicity against human HeLa cells assessed as inhibition of cell growth after 48 hrs by CCK-8 assay; assay type: cell-based
[11] = Ratio of LC50 for human HeLa cells to EC50 for IDO1 in IFN-gamma-stimulated human HeLa cells; assay type: toxicity
Histone deacetylase 2 = Histone deacetylase 2 (Homo sapiens, UniProt Q92769); assay: Inhibition of HDAC2 (unknown origin) using substrate 3 after 30 mins by fluorescence assay
Histone deacetylase 3 = Histone deacetylase 3 (Homo sapiens, UniProt O15379); assay: Inhibition of HDAC3 (unknown origin) using substrate 3 after 30 mins by fluorescence assay
[12] = biological target: T2, Protein deacetylase HDAC6 (Homo sapiens, UniProt Q9UBN7); assay: Inhibition of HDAC6 (unknown origin) using substrate 3 after 30 mins by fluorescence assay
T2 sequence (Q9UBN7 whole entry): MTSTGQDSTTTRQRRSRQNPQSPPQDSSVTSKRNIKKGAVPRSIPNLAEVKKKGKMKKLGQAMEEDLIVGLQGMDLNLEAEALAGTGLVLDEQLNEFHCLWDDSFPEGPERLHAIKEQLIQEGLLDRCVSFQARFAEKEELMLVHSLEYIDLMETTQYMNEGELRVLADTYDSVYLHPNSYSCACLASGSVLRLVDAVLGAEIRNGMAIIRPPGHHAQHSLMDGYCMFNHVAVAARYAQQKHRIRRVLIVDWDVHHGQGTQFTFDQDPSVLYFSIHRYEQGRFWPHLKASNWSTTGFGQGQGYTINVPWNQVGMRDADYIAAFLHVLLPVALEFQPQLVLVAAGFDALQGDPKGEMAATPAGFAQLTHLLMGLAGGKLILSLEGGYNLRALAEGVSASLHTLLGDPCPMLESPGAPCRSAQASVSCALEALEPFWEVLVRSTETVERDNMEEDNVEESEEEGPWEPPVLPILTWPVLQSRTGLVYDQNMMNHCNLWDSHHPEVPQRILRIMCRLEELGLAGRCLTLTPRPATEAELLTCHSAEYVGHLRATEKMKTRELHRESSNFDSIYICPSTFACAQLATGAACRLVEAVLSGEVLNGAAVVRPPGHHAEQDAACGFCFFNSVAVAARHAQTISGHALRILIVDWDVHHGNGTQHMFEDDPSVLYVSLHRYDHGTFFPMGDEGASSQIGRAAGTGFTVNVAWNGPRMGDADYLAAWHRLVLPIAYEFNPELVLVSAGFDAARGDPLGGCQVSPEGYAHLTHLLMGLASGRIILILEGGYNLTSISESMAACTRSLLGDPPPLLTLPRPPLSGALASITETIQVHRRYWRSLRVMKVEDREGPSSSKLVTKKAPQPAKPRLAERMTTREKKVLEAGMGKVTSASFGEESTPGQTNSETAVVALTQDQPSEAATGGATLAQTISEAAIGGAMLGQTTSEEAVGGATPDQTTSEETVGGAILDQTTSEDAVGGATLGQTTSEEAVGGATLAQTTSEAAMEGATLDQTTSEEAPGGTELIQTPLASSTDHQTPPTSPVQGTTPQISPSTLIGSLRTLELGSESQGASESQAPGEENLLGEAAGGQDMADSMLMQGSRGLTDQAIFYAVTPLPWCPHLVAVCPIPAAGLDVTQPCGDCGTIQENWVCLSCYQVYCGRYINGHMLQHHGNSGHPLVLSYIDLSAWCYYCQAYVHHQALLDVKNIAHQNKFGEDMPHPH

[13] = Half life in mouse liver microsomes at 1 uM by LC-MS/MS analysis; assay type: ADME, microsome
[14] = Apparent clearance in mouse liver microsomes; assay type: ADME, microsome
[15] = Cmax in Sprague-Dawley rat at 100 mg/kg, po administered as single dose via gavage by LC-MS/MS analysis; assay type: ADME, organism-based; parameters: dose 100 mg/kg, route oral; conditions: in vivo
[16] = Cmax in Sprague-Dawley rat at 2 mg/kg, iv administered as single dose by LC-MS/MS analysis; assay type: ADME, organism-based; parameters: dose 2 mg/kg, route intravenous; conditions: in vivo
[17] = Tmax in Sprague-Dawley rat at 100 mg/kg, po administered as single dose via gavage by LC-MS/MS analysis; assay type: ADME, organism-based; conditions: in vivo
[18] = Tmax in Sprague-Dawley rat at 2 mg/kg, iv administered as single dose by LC-MS/MS analysis; assay type: ADME, organism-based; conditions: in vivo
[19] = Half life in Sprague-Dawley rat at 100 mg/kg, po administered as single dose via gavage by LC-MS/MS analysis; assay type: ADME, organism-based; conditions: in vivo
[20] = Half life in Sprague-Dawley rat at 2 mg/kg, iv administered as single dose by LC-MS/MS analysis; assay type: ADME, organism-based; conditions: in vivo
[21] = AUC (0 to infinity) in Sprague-Dawley rat at 100 mg/kg, po administered as single dose via gavage by LC-MS/MS analysis; assay type: ADME, organism-based; parameters: dose 100 mg/kg, time infinity, route oral; conditions: in vivo
[22] = AUC (0 to infinity) in Sprague-Dawley rat at 2 mg/kg, iv administered as single dose by LC-MS/MS analysis; assay type: ADME, organism-based; parameters: dose 2 mg/kg, time infinity, route intravenous; conditions: in vivo
[23] = Oral bioavailability in Sprague-Dawley rat at 100 mg/kg administered as single dose via gavage by LC-MS/MS analysis; assay type: ADME, organism-based; conditions: in vivo
Mus musculus [24] = assay: In vivo inhibition of IDO1 in wild type C57BL/6 mouse assessed as reduction in kynurenine levels in plasma at 100 mg/kg, po administered via gavage after 3 to 8 hrs by LC-MS/MS analysis; assay type: functional, organism-based
[25] = Stability of the compound in PBS buffer after 24 hrs; assay type: physicochemical
[26] = Solubility of the compound in water; assay type: physicochemical
[27] = system: Lewis lung carcinoma cell line; assay: Antitumor activity against mouse LLC cells implanted in immunocompetent C57BL/6 mouse assessed as tumor growth inhibition at 100 mg/kg, po bid administered via gavage for 14 consecutive days measured every 4 days relative to control; assay type: functional; conditions: 96 h, read-out: TGI
Mus musculus [28] = assay: Toxicity in immunocompetent C57BL/6 mouse assessed as body weight loss at 100 mg/kg, po bid administered via gavage for 14 consecutive days measured 3 times per week; assay type: organism-based; conditions: in vivo
[29] = AUC in immunocompetent C57BL/6 mouse implanted with mouse LLC cells at 100 mg/kg, po bid administered via gavage; assay type: ADME, organism-based; conditions: in vivo
[30] = Half life in immunocompetent C57BL/6 mouse implanted with mouse LLC cells at 100 mg/kg, po bid administered via gavage; assay type: ADME, organism-based; conditions: in vivo

T1 sequence (P14902 whole entry, the tested form may be a part): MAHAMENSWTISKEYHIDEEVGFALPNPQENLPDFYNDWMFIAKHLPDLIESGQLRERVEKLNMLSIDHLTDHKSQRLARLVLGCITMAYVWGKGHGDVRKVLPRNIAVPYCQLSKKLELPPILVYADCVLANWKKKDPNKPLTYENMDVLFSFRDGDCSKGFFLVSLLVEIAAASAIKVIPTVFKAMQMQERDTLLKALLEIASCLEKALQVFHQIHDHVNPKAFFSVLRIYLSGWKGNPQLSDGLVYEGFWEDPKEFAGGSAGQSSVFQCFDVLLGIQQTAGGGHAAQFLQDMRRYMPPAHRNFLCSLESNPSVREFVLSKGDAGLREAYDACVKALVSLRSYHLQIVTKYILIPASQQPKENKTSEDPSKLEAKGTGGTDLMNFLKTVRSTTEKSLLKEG
Sequence of Histone deacetylase 3 (O15379 whole entry): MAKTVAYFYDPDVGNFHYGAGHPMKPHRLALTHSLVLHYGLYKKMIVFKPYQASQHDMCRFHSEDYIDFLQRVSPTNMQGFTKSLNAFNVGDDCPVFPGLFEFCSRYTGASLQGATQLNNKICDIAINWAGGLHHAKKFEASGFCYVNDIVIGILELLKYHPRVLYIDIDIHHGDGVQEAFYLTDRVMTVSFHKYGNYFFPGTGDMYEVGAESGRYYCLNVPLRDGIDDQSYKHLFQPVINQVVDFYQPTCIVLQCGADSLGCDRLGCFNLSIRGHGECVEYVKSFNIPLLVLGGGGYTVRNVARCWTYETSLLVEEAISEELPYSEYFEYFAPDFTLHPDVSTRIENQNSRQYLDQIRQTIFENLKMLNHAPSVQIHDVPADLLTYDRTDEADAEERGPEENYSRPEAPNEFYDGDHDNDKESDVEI
Sequence of Histone deacetylase 2 (Q92769 whole entry): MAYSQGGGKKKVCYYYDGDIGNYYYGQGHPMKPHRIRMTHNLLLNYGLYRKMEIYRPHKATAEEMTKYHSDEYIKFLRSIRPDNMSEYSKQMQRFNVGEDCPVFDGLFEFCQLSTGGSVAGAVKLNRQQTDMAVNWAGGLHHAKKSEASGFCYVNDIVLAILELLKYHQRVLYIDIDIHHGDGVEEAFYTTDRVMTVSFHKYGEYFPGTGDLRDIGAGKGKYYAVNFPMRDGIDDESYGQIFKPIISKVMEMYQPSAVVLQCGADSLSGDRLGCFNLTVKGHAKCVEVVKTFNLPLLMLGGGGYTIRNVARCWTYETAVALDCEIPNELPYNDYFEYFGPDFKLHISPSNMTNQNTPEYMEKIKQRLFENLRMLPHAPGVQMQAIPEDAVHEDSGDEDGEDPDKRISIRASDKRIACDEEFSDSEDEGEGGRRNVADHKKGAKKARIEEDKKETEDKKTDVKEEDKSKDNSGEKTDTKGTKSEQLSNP
Sequence of Histone deacetylase 1 (Q13547 whole entry, the tested form may be a part): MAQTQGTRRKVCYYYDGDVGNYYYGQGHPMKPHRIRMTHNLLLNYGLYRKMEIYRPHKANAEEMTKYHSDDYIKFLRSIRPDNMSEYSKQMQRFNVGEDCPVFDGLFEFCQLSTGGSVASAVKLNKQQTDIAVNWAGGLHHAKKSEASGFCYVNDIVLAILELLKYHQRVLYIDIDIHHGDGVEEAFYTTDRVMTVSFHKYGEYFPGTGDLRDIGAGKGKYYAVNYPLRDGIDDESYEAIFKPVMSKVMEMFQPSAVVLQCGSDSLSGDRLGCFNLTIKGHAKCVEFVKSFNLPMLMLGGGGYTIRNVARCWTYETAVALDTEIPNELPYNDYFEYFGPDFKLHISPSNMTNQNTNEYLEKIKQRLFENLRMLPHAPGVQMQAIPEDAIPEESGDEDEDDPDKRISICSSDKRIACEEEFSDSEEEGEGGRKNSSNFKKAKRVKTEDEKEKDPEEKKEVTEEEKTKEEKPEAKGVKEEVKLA

Q: With `Nc1ccccc1NC(=O)c1ccc(C(=O)NCCNc2nonc2/C(=N/O)Nc2ccc(F)c(Br)c2)cc1` as the compound, how does the IC50 (Histone deacetylase 1) read?
A: 66.5 nM

Q: And the IC50 [1]?
A: 69 nM

Q: What about the IC50 [2] of the same compound?
A: 17600 nM

Q: What about the IC50 (CT26) of the same compound?
A: 59800 nM

Q: What about the IC50 (A549) of the same compound?
A: 16700 nM

Q: What about the IC50 (HCT-116 [3]) of the same compound?
A: 5120 nM

Q: What about the IC50 (HT-29) of the same compound?
A: 11700 nM

Q: And the Activity (HCT-116 [4])?
A: Dose-dependent effect

Q: What about the Activity (HCT-116 [5]) of the same compound?
A: 18.8%

Q: And the Activity (HCT-116 [6])?
A: 29.9%

Q: And the Activity (HCT-116 [7])?
A: 48.9%

Q: And the Activity (HCT-116 [8])?
A: 47.4%

Q: And the Activity (HCT-116 [9])?
A: Tde

Q: What about the EC50 [10] of the same compound?
A: 410 nM

Q: What about the LC50 (HeLa) of the same compound?
A: 24770 nM

Q: What about the selectivity ratio [11] of the same compound?
A: 60.4

Q: What about the IC50 (Histone deacetylase 2) of the same compound?
A: 179 nM

Q: And the IC50 (Histone deacetylase 3)?
A: 45 nM

Q: What about the IC50 [12] of the same compound?
A: 70 nM

Q: What about the half-life at 1 µM [13] of the same compound?
A: 0.806 h

Q: And the “CL(app)” value [14]?
A: 28.7 µL/min/mg

Q: And the Cmax [15]?
A: 5760 ng/mL

Q: What about the Cmax [16] of the same compound?
A: 12000 ng/mL

Q: What about the Tmax [17] of the same compound?
A: 2 h

Q: And the Tmax [18]?
A: 4.98 min

Q: What about the half-life [19] of the same compound?
A: 3.4 h

Q: What about the half-life [20] of the same compound?
A: 1.4 h

Q: And the AUC(0-inf) [21]?
A: 33500 ng·h/mL

Q: What about the AUC(0-inf) [22] of the same compound?
A: 3650 ng·h/mL

Q: What about the bioavailability [23] of the same compound?
A: 18%

Q: What about the inhibition (Mus musculus [24]) of the same compound?
A: Active

Q: And the Stability [25]?
A: Stable

Q: And the solubility [26]?
A: < 10 µg/mL

Q: What about the inhibition in vivo at 100 mg/kg [27] of the same compound?
A: 56%

Q: What about the Activity (Mus musculus [28]) of the same compound?
A: Non-Toxic

Q: What about the AUC [29] of the same compound?
A: 60 µM·h

Q: And the half-life [30]?
A: 3.4 h

Source: ChEMBL document CHEMBL4251732, “Discovery of Novel Indoleamine 2,3-Dioxygenase 1 (IDO1) and Histone Deacetylase (HDAC) Dual Inhibitors” (ACS Med Chem Lett, 2018)
